Data: patent US6914045B2, “Glycopeptide antibiotics” (Wyeth Holdings Corporation, priority 2001, dated 2005)
≈ marks a conversion by molar mass, not a printed value.

Assays:
Assay in all cases: in vitro antibacterial evaluation, MIC by broth dilution
Format in all cases: cell-based
Escherichia coli = settings: 18 hours at 35° C.
Staphylococcus sp. = settings: broth dilution, 18 hours at 35° C.; for MIC Staphylococcus aureus (GC 1131): strain GC 1131
Method: (§1) Methods for in vitro Antibacterial Evaluation (Table 1)
(§2) The minimum inhibitory concentration (MIC), the lowest concentration of the antibiotic which inhibits growth of the test organism, is determined by the broth dilution method using Muller-Hinton II […] (Baltimore Biological Laboratories) following the recommendations of the National Committee for Clinical Laboratory Standards [Methods for dilution antimicrobial susceptibility tests for bacteria that grow aerobically, approved standard M7-A2, National Committee for Clinical Laboratory Standards, Villanova, Pa.].
(§3) An inoculum level of 5×10^5 CFU/mL, and a range of antibiotic concentrations (64-0.06 μg/mL) is used. […] The test organisms include a spectrum of Gram-positive bacteria comprised of Staphylococcus sp., Streptococcus sp. and Enterococcus sp. These organisms include recent clinical isolates that are resistant to methicillin, penicillin and/or vancomycin.

Streptococcus sp. = settings: broth dilution, 18 hours at 35° C.
Method: as §1, §2, §3

Enterococcus sp. = settings: broth dilution, 18 hours at 35° C.
Method: as §1, §2, §3

With `CC(c1ccccc1)C1NC(=O)CNC(=O)C(CO)NC(=O)C(C(O)C2CNC(=N)N2C2OC(CO)C(O)C(O)C2O)NC(=O)C(C(O)C2CNC(=N)N2)NC(=O)C(Cc2ccc(OC3OC(CO)C(OC4OC5COC(c6ccc(C(=O)c7ccc(I)cc7)cc6)OC5C(O)C4O)C(O)C3O)cc2)NC1=O` (centres unmarked) [Example 186] the “MIC Escherichia coli (ATCC 25922)” value (Escherichia coli) was 64 µg/mL (≈ 39.7 µM), the “MIC Escherichia coli (GC 4559)” value (Escherichia coli) was 64 µg/mL (≈ 39.7 µM) and the “MIC Escherichia coli (GC 4560)” value (Escherichia coli) was 4 µg/mL (≈ 2.48 µM). The “MIC Staphylococcus aureus (GC 1131)” value (Staphylococcus sp.; inoculum 5×10^5 CFU/mL) was 2 µg/mL (≈ 1.24 µM), the “MIC Staphylococcus aureus (ATCC 29213)” value (Staphylococcus sp.; strain ATCC 29213) was 2 µg/mL (≈ 1.24 µM) and the “MIC Staphylococcus aureus (GC 1131)” value (Staphylococcus sp.) was 2 µg/mL (≈ 1.24 µM). The “MIC Staphylococcus aureus (GC 3051)” value (Staphylococcus sp.; strain GC 3051) was 2 µg/mL (≈ 1.24 µM), the “MIC Staphylococcus aureus (GC 3053)” value (Staphylococcus sp.; strain GC 3053) was 2 µg/mL (≈ 1.24 µM) and the “MIC Staphylococcus aureus (GC 4541)” value (Staphylococcus sp.; strain GC 4541) was 2 µg/mL (≈ 1.24 µM). For the same compound, the “MIC Staphylococcus aureus (GC 4542)” value (Staphylococcus sp.; strain GC 4542) was 1 µg/mL (≈ 0.62 µM), the “MIC Staphylococcus aureus-SMITH (GC 4543)” value (Staphylococcus sp.; strain GC 4543) was 2 µg/mL (≈ 1.24 µM) and the “MIC Staphylococcus aureus (GC 4544)” value (Staphylococcus sp.; strain GC 4544) was 2 µg/mL (≈ 1.24 µM). For the same compound, the “MIC Staphylococcus aureus (GC 4545)” value (Staphylococcus sp.; strain GC 4545) was 2 µg/mL (≈ 1.24 µM), the “MIC Staphylococcus haemolyticus (GC 4546)” value (Staphylococcus sp.; strain GC 4546) was 1 µg/mL (≈ 0.62 µM) and the “MIC Coagulase Negative Staphylococcus (GC 4547)” value (Staphylococcus sp.; strain GC 4547) was 2 µg/mL (≈ 1.24 µM). For the same compound, the “MIC Coagulase Negative Staphylococcus (GC 4548)” value (Staphylococcus sp.; strain GC 4548) was 1 µg/mL (≈ 0.62 µM), the “MIC Coagulase Negative Staphylococcus (GC 4549)” value (Staphylococcus sp.; strain GC 4549) was 1 µg/mL (≈ 0.62 µM) and the “MIC Coagulase Negative Staphylococcus (GC 4551)” value (Staphylococcus sp.; strain GC 4551) was 2 µg/mL (≈ 1.24 µM). For the same compound, the “MIC Coagulase Negative Staphylococcus (GC 6257)” value (Staphylococcus sp.; strain GC 6257) was 0.5 µg/mL (≈ 0.31 µM), the “MIC Streptococcus agalactiae (GC 4564)” value (Streptococcus sp.) was under 0.06 µg/mL and the “MIC Streptococcus pneumoniae (ATCC 6301)” value (Streptococcus sp.) was under 0.06 µg/mL. For the same compound, the “MIC Streptococcus pneumoniae (GC 1894)” value (Streptococcus sp.) was under 0.06 µg/mL, the “MIC Streptococcus pneumoniae (GC 4565)” value (Streptococcus sp.) was under 0.06 µg/mL and the “MIC Streptococcus pyogenes (GC 4563)” value (Streptococcus sp.) was 0.25 µg/mL (≈ 0.155 µM). The “MIC Streptococcus pneumoniae (ATCC 6301)” value (Streptococcus sp.; inoculum 5×10^5 CFU/mL, strain ATCC 6301) was under 0.06 µg/mL, the “MIC Streptococcus pneumoniae (GC 1894)” value (Streptococcus sp.; inoculum 5×10^5 CFU/mL, strain GC 1894) was under 0.06 µg/mL and the “MIC Streptococcus pyogenes (GC 4563)” value (Streptococcus sp.; inoculum 5×10^5 CFU/mL, strain GC 4563) was 0.25 µg/mL (≈ 0.155 µM). The “MIC Streptococcus agalactiae (GC 4564)” value (Streptococcus sp.; inoculum 5×10^5 CFU/mL, strain GC 4564) was under 0.06 µg/mL, the “MIC Streptococcus pneumoniae (GC 4565)” value (Streptococcus sp.; inoculum 5×10^5 CFU/mL, strain GC 4565) was under 0.06 µg/mL and the “MIC Enterococcus avium (GC 4558)” value (Enterococcus sp.) was 2 µg/mL (≈ 1.24 µM). The “MIC Enterococcus faecalis (ATCC 29212)” value (Enterococcus sp.) was 2 µg/mL (≈ 1.24 µM), the “MIC Enterococcus faecalis (GC 2242)” value (Enterococcus sp.) was 2 µg/mL (≈ 1.24 µM) and the “MIC Enterococcus faecalis (GC 2691)” value (Enterococcus sp.) was 2 µg/mL (≈ 1.24 µM). The “MIC Enterococcus faecalis (GC 3059)” value (Enterococcus sp.) was 2 µg/mL (≈ 1.24 µM), the “MIC Enterococcus faecalis (GC 4552)” value (Enterococcus sp.) was 2 µg/mL (≈ 1.24 µM) and the “MIC Enterococcus faecalis (GC 4553)” value (Enterococcus sp.) was 2 µg/mL (≈ 1.24 µM). For the same compound, the “MIC Enterococcus faecalis (GC 4554)” value (Enterococcus sp.) was 2 µg/mL (≈ 1.24 µM), the “MIC Enterococcus faecalis (GC 6189)” value (Enterococcus sp.) was 1 µg/mL (≈ 0.62 µM) and the “MIC Enterococcus faecium (GC 2243)” value (Enterococcus sp.) was 2 µg/mL (≈ 1.24 µM). The “MIC Enterococcus faecium (GC 4556)” value (Enterococcus sp.) was 2 µg/mL (≈ 1.24 µM), the “MIC Enterococcus faecium (GC 4557)” value (Enterococcus sp.) was 2 µg/mL (≈ 1.24 µM) and the “MIC Enterococcus faecalis (ATCC 29212)” value (Enterococcus sp.; inoculum 5×10^5 CFU/mL, strain ATCC 29212) was 2 µg/mL (≈ 1.24 µM). For the same compound, the “MIC Enterococcus faecalis (GC 2242)” value (Enterococcus sp.; inoculum 5×10^5 CFU/mL, strain GC 2242) was 2 µg/mL (≈ 1.24 µM), the “MIC Enterococcus faecium (GC 2243)” value (Enterococcus sp.; inoculum 5×10^5 CFU/mL, strain GC 2243) was 2 µg/mL (≈ 1.24 µM) and the “MIC Enterococcus faecalis (GC 2691)” value (Enterococcus sp.; inoculum 5×10^5 CFU/mL, strain GC 2691) was 2 µg/mL (≈ 1.24 µM). For the same compound, the “MIC Enterococcus faecalis (GC 3059)” value (Enterococcus sp.; inoculum 5×10^5 CFU/mL, strain GC 3059) was 2 µg/mL (≈ 1.24 µM), the “MIC Enterococcus faecalis (GC 4552)” value (Enterococcus sp.; inoculum 5×10^5 CFU/mL, strain GC 4552) was 2 µg/mL (≈ 1.24 µM) and the “MIC Enterococcus faecalis (GC 4553)” value (Enterococcus sp.; inoculum 5×10^5 CFU/mL, strain GC 4553) was 2 µg/mL (≈ 1.24 µM). The “MIC Enterococcus faecalis (GC 4554)” value (Enterococcus sp.; inoculum 5×10^5 CFU/mL, strain GC 4554) was 2 µg/mL (≈ 1.24 µM), the “MIC Enterococcus faecium (GC 4556)” value (Enterococcus sp.; inoculum 5×10^5 CFU/mL, strain GC 4556) was 2 µg/mL (≈ 1.24 µM) and the “MIC Enterococcus faecium (GC 4557)” value (Enterococcus sp.; inoculum 5×10^5 CFU/mL, strain GC 4557) was 2 µg/mL (≈ 1.24 µM). For the same compound, the “MIC Enterococcus avium (GC 4558)” value (Enterococcus sp.; inoculum 5×10^5 CFU/mL, strain GC 4558) was 2 µg/mL (≈ 1.24 µM) and the “MIC Enterococcus faecalis (GC 6189)” value (Enterococcus sp.; inoculum 5×10^5 CFU/mL, strain GC 6189) was 1 µg/mL (≈ 0.62 µM).
